# Several values for one entry are separate records, joined by “and”; a condition that tells them apart may be missing. Identical values can stand only once. Entries after “also recorded” stand apart in the source; their conditions may differ. Like-named read-outs stand apart in the source and are kept apart here.
# Tests used:
# [1] = system: RT-WT specific CTL lines; assay: Recognition of RT-variant peptides by RT-WT-specific CTL lines (FIG. 2); details: E/T ratio 10:1
# Method: (§1) CTL activity was measured using a 4-hr assay with ^51Cr-labeled target cells (Okazaki et al., J Immunol 2003, 171(5):2548-2555). Target cells (10^6) were pulsed in 100 μl of CTM and 150 μCi ^51Cr for 1.5 hr, washed three times, and added at 3,000 cells/well to the 96-well round-bottom plates with different peptide concentrations. Effector cells were introduced 2 h later. Then, the supernatants were harvested and counted following an additional 4-hr incubation. The percentage of specific ^51Cr release was calculated as 100×(experimental release−spontaneous release)/(Maximum release−spontaneous release). Spontaneous release was determined from target cells incubated in the absence of effector cells. Maximum release was determined in the presence of 0.1 M HCl. C1R.AAD cell lines served as target cells.
# [2] = biological target: T1, HLA-A2.1 molecules (Homo sapiens, UniProt P04439, D140Y/D185E/D98H/E176V/E277Q/G131W/G231S/I119V/I121R/I166T/I218V/L300P/L318F/N151K/N90K/P208A/P217A/Q86G/Q94H/R138H/R169H/T345S); details: Okazaki et al. 2003; cited from earlier work
# [3] = system: RT-WT peptide-pulsed C1R.AAD target cells; assay: 51Cr-release cytotoxicity assay: recognition of RT-WT by peptide-specific CTL lines from HHD-transgenic mice; details: FIGS. 3-5; E/T ratio 10:1
# Method: Mice more than eight weeks of age were immunized subcutaneously in the base of the tail with 100 μl of an emulsion containing 1:1 incomplete Freund's adjuvant (IFA) and PBS solution with antigens and cytokines (50 nmol CTL epitope, 50 nmol HBV core 128-140 helper epitope, 5 μg of IL-12 and 5 μg of granulocyte-macrophage colony stimulating factor). Mice were boosted two weeks later. Spleens were removed 10-14 days after the boost. Immune spleen cells (2.5×10^6/well) were stimulated in 24-well plates with autologous spleen cells (5×10^6/well) pulsed for 2 h with 10 μM CTL epitope peptide in CTM supplemented with 10% T-Stim (Collaborative Biochemical Products, Bedford, Mass.). Following more than 4 in vitro stimulations with peptide-pulsed syngeneic spleen cells, CTL lines were maintained by weekly restimulation of 1×10^6 CTL/well with 4×10^6 peptide pulsed irradiated (3,300 rads) gynogeneic spleen cells as feeders, or by weekly stimulation of 1×10^6 CTL/well with 3.8×10^6 peptide pulsed irradiated C57BL/6 spleen cells and 1-3×10^5 peptide pulsed and irradiated (15,000 rad) Jurkat-A2K^b transfectant cells.
# as §1
# [4] = biological target: T1, HLA-A2.1 molecules; format: binding
# [5] = format: physicochemical
# From the text: CTL peptides of the present invention, including the CTL peptide […] (SEQ ID NO:6; […]. The CTL peptide […] (SEQ ID NO:6; […]. The recommended storage of intact vials of the CTL peptide […] (SEQ ID NO:6; […].
# Further, the CTL peptide […]
# [6] = format: physicochemical; details: mixed with Montanide ISA-51 (300 μg dose)
# From the text: When the CTL peptide […] (SEQ ID NO:6; […]
# [7] = cited from earlier work
# [8] = system: HIV; details: patients infected with HIV; cited from earlier work
substance,measurement,setting,value
"VIYQYMDDL (conserved HLA-A2-restricted cytotoxic T lymphocyte (CTL) epitope in human immunodeficiency virus 1 (HIV-1) drug-sensitive wild-type reverse transcriptase (RT-WT), residues 179-187)",Recognition of the peptide by RT-WT-specific CTL,[1],recognized
VLYQYMDDV [RT-2L9V],binding ability to HLA-A2 relative to RT-WT,[2],approximately 8 fold
same,Recognition of RT-WT by the peptide-specific CTL line,[3],most strongly among all four CTL types
YLYQYVDDV,FI0.5 (concentration required to give an FI of 0.5),[4],0.245 µM and 0.176 to 0.245 µM
VLYQYVDDV,freeze-thaw-freeze cycles through which the peptide is stable,[5],at least two
same,degradation by HPLC,"[5]; 1.6 mg/ml, 4° C. and 22° C., by 7 days",No degradation
same,loss by adsorption onto the borosilicate glass vial,[5]; at the concentrations to be used for vialing,not significantly lost
same,storage stability,[5]; controlled room temperature (15° C.-30° C.),3 months
same,storage stability,[5]; freezer (−10° C. to −25° C. and −70° C.),at least 18 months
same,storage stability,[5]; refrigerator (2° C.-8° C.),at least 9 months
same,physical stability of the emulsion,[6],3 h
same,Recognition of RT-WT by the peptide-specific CTL line,[3],to some extent; also recorded: slightly weaker than that of RT-2L9V specific CTL
"sargramostim: glycosylated, recombinant human sargramostim; position 23 arginine replaced with leucine, expressed in yeast",stability after reconstitution,"[7]; 250 μg vial reconstituted with bacteriostatic water for injection, refrigerator",20 days
same,stability after initial entry into the vial,[7]; 500 μg/ml liquid,up to 20 days
same,effect on viral load,[8],slight decrease
same,impact on the CD4 count,[8],little impact
same,safety,[8],safe

# — patent publication US9474793B2, “Vaccines and methods for prevention and treatment of drug-resistant HIV-1 and hepatitis B virus” (The United States of America, as represented by the …, priority 2005, dated 2016)
